Test results: patent US20230295580A1, “SPHEROID GENERATOR, SPHEROID CULTURE KIT, AND SPHEROID CULTURE METHOD” (RESEARCH AND BUSINESS FOUNDATION SUNGKYUNKWAN UNIVERSITY, priority 2020, published 2023)

Tested on: cancer cells of the spheroid
Test: Spheroid culture with anticancer substance injected through sub-injection part; live/dead cancer cell viability
Type: cell-based
Details: spheroid formed for 12 to 36 hours, then anticancer substance for 12 to 36 hours; increasing injected volume of TMZ; Dead/Live/Merge images, microscope
Experimental: Referring to FIG. 11 to FIG. 13, a spheroid generator 10 in which the size of a sub-injection part 18 is increased from one side to the other side of a culture plate 120 is disposed (S11). In this case, main injection parts 14 having the same size are formed in all of the spheroid generators 10.
A cancer cell solution 21 is prepared (S12). That is, the cancer cell solution 21 is prepared by mixing a plurality of cancer cells with a culture medium 24.
The cancer cell solution 21 is injected into the main injection parts 14 of the plurality of spheroid generators 10 (S13). In this case, since main injection parts 14 having the same size are formed in all of the spheroid generators 10, the same amount of the cancer cell solution 21 is injected into all of the main injection parts 14.
As the cancer cells of the cancer cell solution 21 are cultured in the plurality of spheroid generators 10, a spheroid 25 is formed (S14). In this case, the step of forming a spheroid 25 as the cancer cells of the cancer cell solution 21 are cultured in the plurality of spheroid generators 10 is performed for 12 to 36 hours.
An anticancer substance 23 is injected into a sub-injection part 18 of the plurality of spheroid generators 10 (S15). […]

Cn1nnc2c(C(N)=O)ncn2c1=O [TMZ]
relative viability of cancer cells: decreases
